{
  "source": "ChEMBL document CHEMBL4402510",
  "about": "“Caprazamycins: Promising lead structures acting on a novel antibacterial target MraY” (Eur J Med Chem, 2019)",
  "key": {"[1]": {"system": "Mycolicibacterium smegmatis", "assay": "Antibacterial activity against Mycobacterium smegmatis after 20 hrs by NCCLS-based two-fold broth dilution method", "assay_type": "functional"}, "Staphylococcus aureus [2]": {"system": "Staphylococcus aureus", "assay": "Antibacterial activity against Staphylococcus aureus after 20 hrs by NCCLS-based two-fold broth dilution method", "assay_type": "functional"}, "Staphylococcus aureus [3]": {"system": "Staphylococcus aureus", "assay": "Antibacterial activity against methicillin resistant Staphylococcus aureus after 20 hrs by NCCLS-based two-fold broth dilution method", "assay_type": "functional", "conditions": "read-out: MIC"}, "Bacillus subtilis [4]": {"system": "Bacillus subtilis", "assay": "Antibacterial activity against Bacillus subtilis after 20 hrs by NCCLS-based two-fold broth dilution method", "assay_type": "functional"}, "[5]": {"system": "Mycobacterium tuberculosis", "assay": "Antibacterial activity against Mycobacterium tuberculosis after 20 hrs by NCCLS-based two-fold broth dilution method", "assay_type": "functional"}, "Mycobacterium avium": {"system": "Mycobacterium avium", "assay": "Antibacterial activity against Mycobacterium avium after 20 hrs by NCCLS-based two-fold broth dilution method", "assay_type": "functional"}, "[6]": {"system": "Mycobacterium intracellulare", "assay": "Antibacterial activity against Mycobacterium intracellulare after 20 hrs by NCCLS-based two-fold broth dilution method", "assay_type": "functional"}, "Mycolicibacterium vaccae": {"system": "Mycolicibacterium vaccae", "assay": "Antibacterial activity against Mycobacterium vaccae after 20 hrs by NCCLS-based two-fold broth dilution method", "assay_type": "functional"}, "Mycolicibacterium phlei": {"system": "Mycolicibacterium phlei", "assay": "Antibacterial activity against Mycobacterium phlei after 20 hrs by NCCLS-based two-fold broth dilution method", "assay_type": "functional"}, "Escherichia coli": {"system": "Escherichia coli", "assay": "Antibacterial activity against Escherichia coli after 20 hrs by NCCLS-based two-fold broth dilution method", "assay_type": "functional"}, "Klebsiella pneumoniae": {"system": "Klebsiella pneumoniae", "assay": "Antibacterial activity against Klebsiella pneumoniae after 20 hrs by NCCLS-based two-fold broth dilution method", "assay_type": "functional"}, "[7]": {"biological_target": "T1, Phospho-N-acetylmuramoyl-pentapeptide-transferase (Bacillus subtilis (strain 168), UniProt Q03521)", "T1 sequence (Q03521 whole entry)": "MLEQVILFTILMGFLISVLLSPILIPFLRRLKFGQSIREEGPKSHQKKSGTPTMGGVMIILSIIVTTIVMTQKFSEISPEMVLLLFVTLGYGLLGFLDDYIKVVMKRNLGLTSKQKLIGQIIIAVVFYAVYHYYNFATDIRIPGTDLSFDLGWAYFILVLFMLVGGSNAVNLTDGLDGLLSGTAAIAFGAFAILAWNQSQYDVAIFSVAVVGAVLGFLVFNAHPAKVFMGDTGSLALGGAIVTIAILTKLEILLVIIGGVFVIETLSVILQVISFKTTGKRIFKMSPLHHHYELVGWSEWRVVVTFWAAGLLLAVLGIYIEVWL", "assay": "Inhibition of MraY in Bacillus subtilis"}, "Bacillus subtilis [8]": {"system": "Bacillus subtilis", "assay": "Inhibition of TagO in Bacillus subtilis"}, "[9]": {"system": "Mycobacterium tuberculosis", "assay": "Inhibition of WecA in Mycobacterium tuberculosis"}, "[10]": {"system": "Mycolicibacterium smegmatis", "assay": "Inhibition of WecA in Mycobacterium smegmatis"}, "[11]": {"system": "Mycobacterium tuberculosis", "assay": "Inhibition of WecA in Mycobacterium tuberculosis mc2 6230"}, "[12]": {"system": "Mycobacterium tuberculosis", "assay": "Antibacterial activity against Mycobacterium tuberculosis H37Rv", "assay_type": "functional"}, "[13]": {"system": "Mycobacterium intracellulare", "assay": "Antibacterial activity against Mycobacterium intracellulare JCM3684", "assay_type": "functional"}, "[14]": {"assay": "Antibacterial activity against Mycobacterium avium subsp. avium ATCC 25291", "assay_type": "functional"}, "[15]": {"system": "Mycobacterium avium subsp. paratuberculosis", "assay": "Antibacterial activity against Mycobacterium avium subsp. paratuberculosis ATCC 43015", "assay_type": "functional"}, "Staphylococcus aureus [16]": {"system": "Staphylococcus aureus", "assay": "Antibacterial activity against Staphylococcus aureus FDA209P", "assay_type": "functional", "conditions": "FDA 209P"}, "Staphylococcus aureus [17]": {"system": "Staphylococcus aureus", "assay": "Antibacterial activity against methicillin resistant Staphylococcus aureus No. 5", "assay_type": "functional"}, "Enterococcus faecalis [18]": {"system": "Enterococcus faecalis", "assay": "Antibacterial activity against Enterococcus faecalis JCM 5803", "assay_type": "functional"}, "Enterococcus faecalis [19]": {"system": "Enterococcus faecalis", "assay": "Antibacterial activity against Enterococcus faecalis NCTC122103", "assay_type": "functional"}, "Streptococcus pneumoniae [20]": {"system": "Streptococcus pneumoniae", "assay": "Antibacterial activity against Streptococcus pneumoniae S-223", "assay_type": "functional"}, "Streptococcus pneumoniae [21]": {"system": "Streptococcus pneumoniae", "assay": "Antibacterial activity against Streptococcus pneumoniae CR-8", "assay_type": "functional"}},
  "data": [
    {"molecule": "CCCCc1ccc(NC(=O)C2=CCN(C)[C@@H]([C@H](O[C@@H]3O[C@H](CN)[C@@H](O)[C@H]3O)[C@H]3O[C@@H](n4ccc(=O)[nH]c4=O)[C@H](O)[C@@H]3O)C(=O)N2C)cc1", "values": [
      {"measurement": "MIC", "setting": "[1]", "value": 6.25, "unit": "µg/mL"},
      {"measurement": "MIC", "setting": "Staphylococcus aureus [2]", "value": 25, "unit": "µg/mL"},
      {"measurement": "MIC", "setting": "Staphylococcus aureus [3]", "value": 100, "unit": "µg/mL"},
      {"measurement": "MIC", "setting": "Bacillus subtilis [4]", "value": 3.13, "unit": "µg/mL"},
      {"measurement": "MIC", "setting": "[5]", "value": 1.56, "unit": "µg/mL"},
      {"measurement": "MIC", "setting": "Mycobacterium avium", "value": "0.39 to 1.56", "unit": "µg/mL"},
      {"measurement": "MIC", "setting": "[6]", "value": 0.2, "unit": "µg/mL"},
      {"measurement": "MIC", "setting": "Mycolicibacterium vaccae", "value": 50, "unit": "µg/mL"},
      {"measurement": "MIC", "setting": "Mycolicibacterium phlei", "value": 12.5, "unit": "µg/mL"},
      {"measurement": "MIC", "setting": "Escherichia coli", "value": "> 100", "unit": "µg/mL"},
      {"measurement": "MIC", "setting": "Klebsiella pneumoniae", "value": 50, "unit": "µg/mL"},
      {"measurement": "IC50", "setting": "[7]", "value": 581, "unit": "nM"},
      {"measurement": "MIC", "setting": "Bacillus subtilis [8]", "value": 0.05, "unit": "µg/mL"},
      {"measurement": "MIC", "setting": "[9]", "value": 0.04, "unit": "µg/mL"},
      {"measurement": "MIC", "setting": "[10]", "value": 0.0044, "unit": "µg/mL"},
      {"measurement": "MIC", "setting": "[11]", "value": 0.04, "unit": "µg/mL"},
      {"measurement": "MIC", "setting": "[12]", "value": "0.2 to 1.56", "unit": "µg/mL"},
      {"measurement": "MIC", "setting": "[13]", "value": "0.2 to 1.56", "unit": "µg/mL"},
      {"measurement": "MIC", "setting": "[14]", "value": "0.2 to 1.56", "unit": "µg/mL"},
      {"measurement": "MIC", "setting": "[15]", "value": "0.2 to 1.56", "unit": "µg/mL"},
      {"measurement": "MIC", "setting": "Staphylococcus aureus [16]", "value": "8 to 100", "unit": "µg/mL"},
      {"measurement": "MIC", "setting": "Staphylococcus aureus [17]", "value": "8 to 100", "unit": "µg/mL"},
      {"measurement": "MIC", "setting": "Enterococcus faecalis [18]", "value": "8 to 100", "unit": "µg/mL"},
      {"measurement": "MIC", "setting": "Enterococcus faecalis [19]", "value": "8 to 100", "unit": "µg/mL"},
      {"measurement": "MIC", "setting": "Streptococcus pneumoniae [20]", "value": "8 to 100", "unit": "µg/mL"},
      {"measurement": "MIC", "setting": "Streptococcus pneumoniae [21]", "value": "8 to 100", "unit": "µg/mL"}
    ]}
  ]
}
